Source: US8097733B2, “Pyrazole derivatives as 5-LO-inhibitors” (Pfizer Inc., priority 2007, dated 2012)

What was measured:
recombinant human 5-LOX = molecular target: T1, recombinant human 5-LOX (Homo sapiens, UniProt P09917); assay: Fluorescence Intensity 5-LOX Enzyme Assay; format: biochemical; conditions: crude lysate of recombinant human 5-LOX; highest inhibitor concentration tested typically 25 μM
T1 sequence (P09917 1-674): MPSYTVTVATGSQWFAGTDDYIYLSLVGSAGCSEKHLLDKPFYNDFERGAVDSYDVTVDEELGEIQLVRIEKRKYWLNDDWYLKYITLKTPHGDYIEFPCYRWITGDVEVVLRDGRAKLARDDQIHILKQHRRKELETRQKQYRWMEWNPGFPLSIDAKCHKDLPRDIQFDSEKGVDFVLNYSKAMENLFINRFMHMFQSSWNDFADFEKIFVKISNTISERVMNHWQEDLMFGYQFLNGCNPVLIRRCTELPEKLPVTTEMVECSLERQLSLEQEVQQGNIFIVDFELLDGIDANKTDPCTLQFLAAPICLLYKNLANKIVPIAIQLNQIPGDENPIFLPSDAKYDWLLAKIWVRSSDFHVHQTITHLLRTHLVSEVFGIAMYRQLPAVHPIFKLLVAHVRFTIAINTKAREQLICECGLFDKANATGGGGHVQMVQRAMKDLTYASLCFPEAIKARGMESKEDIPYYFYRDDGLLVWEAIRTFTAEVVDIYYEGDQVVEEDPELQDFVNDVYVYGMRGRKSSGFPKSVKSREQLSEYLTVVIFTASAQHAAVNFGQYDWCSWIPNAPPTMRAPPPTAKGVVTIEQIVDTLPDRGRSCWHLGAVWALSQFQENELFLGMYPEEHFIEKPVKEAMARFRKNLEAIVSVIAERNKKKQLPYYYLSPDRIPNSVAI
Excerpt: Bio Data Assays for Allergic and Non Allergic Airways Diseases Fluorescence Intensity 5-LOX Enzyme Assay
The enzyme assay is based on the oxidation of the non-fluorescent compound 2′7′-dichlorodihydrofluorescein diacetate (H2DCFDA) to the fluorescent 2′,7′-dichlorofluorescein by 5-LOX in an arachidonic acid-dependent reaction. Ester cleavage of the acetate groups of the substrate H2DCFDA must occur prior to oxidation. This is achieved through use of a crude cell lysate preparation of recombinant human 5-LOX. The enzyme assay ([…]) contained 50 mM Tris (pH 7.5), 2 mM CaCl2, 2 mM EDTA, 3 μM arachidonic acid (Nu-Chek Prep; #S-1133), 10 μM ATP, 10 μM H2DCFDA (Invitrogen; #D399), inhibitor (varying concentration) and recombinant human 5-LOX enzyme (1.25 μL crude lysate per well).
Inhibitors (dissolved in DMSO) were plated into a 384-well assay plate (Corning #3654) at 1 μL followed by a 20 μL addition of a solution containing 5-LO enzyme and H2DCFDA. Enzyme and H2DCFDA were pre-incubated for 5 min to allow time for acetate group cleavage of the dye prior to addition to the assay plate. After a 10 min pre-incubation of inhibitor and enzyme/dye mix, the assay was initiated by the addition of a substrate solution containing arachidonic acid and ATP. The enzymatic reaction was run for 20 min at room temperature and terminated by the addition of 40 μL of acetonitrile. Assay plates were read in a plate reader using standard wavelengths for fluorescein. IC50s of inhibitors were calculated using a 4-parameter fit using 7 inhibitor concentrations in duplicate with 3-fold serial dilutions. Controls on each plate included no inhibitor (zero percent effect) and 25 μM C J-13610 (one hundred percent effect). The highest inhibitor concentration tested was typically 25 μM. The final DMSO concentration in the assay was 2.5%.

[1] = system: human whole blood (leukotriene and prostaglandin levels); assay: Eicosanoid production from human whole blood; format: cell-based; conditions: human whole blood stimulated with calcium ionophore A23187 and arachidonic acid; ELISA
Method: Human whole blood is collected in 10 ml heparin tubes (Vacutainer, Becton Dickenson). Collected blood is pooled and 80 μL is dispensed into each well of 384 well polypropylene plates. A PlateMate is used to add 2 μL of compound solution in DMSO to the 80 μL of blood in the polypropylene plates. The plate, with blood and compound added, is incubated at room temperature for 10 minutes. 2 μL of a calcimycin (800 ng/ml) (A23187 C-7522, Sigma) and arachidonic acid (30 μM) (NU-Chek PREP, INC. S-1133) solution in 60% ethanol is then added to the blood using a Micromultidrop. The plates are then incubated at 37° C. in a shallow water bath for 15 minutes. Plates are then spun at 800 g for 10 minutes at 4° C. Supernatant is removed and assayed by Elisa (Caymen Chemical).
Eicosanoid Production from Human Whole Blood:
Human whole blood was collected from healthy or asthmatic human donors in 10 ml heparinized tubes (Vacutainer tubes; Becton Dickenson, Franklin Lakes, N.J.). Collected blood was pooled and 80 μL was dispensed into each well of 384 well polypropylene plates using a Multi-prop™ 384-well dispenser (Titertek, Huntsville, Ala.). Varying concentrations of compounds were dissolved in DMSO then 2 μL/well was added to the blood using a PlateMate Plus™ automated pipetting station (Matrix Technologies, Hudson, N.H.). The compounds were preincubated with the blood at room temperature for 10 minutes followed by stimulation with 40 μM calcium ionophore (A23187, Sigma Chemical Co, St. Louis, Mo., Cat. # C-7522) and 30 μM arachidonic acid (S-1133, NU-Chek PREP, Inc., Elysian, MN, Cat. # S-1133) dissolved in 60% ethanol. After 15 min incubation at 37° C. in a shallow water bath, the blood was centrifuged at 8009 for 10 minutes at 4° C., the supernatants collected, and leukotriene and prostaglandin levels measured by ELISA according to the manufacturer's directions (Cayman Chemical Company, Ann Arbor, Mich.). The assay was performed at a final concentration of 2.5% DMSO.

| SMILES | IC50 (recombinant human 5-LOX) | IC50 [1] |
| --- | --- | --- |
| C[C@@H]1C[C@](C(N)=O)(c2ccc(F)c(Sc3ccc(-c4ccnn4C)cc3)c2)CCO1 [Example 75, (2R,4S)-4-(4-fluoro-3-{[4-(1-methyl-1H-pyrazol-5-yl)phenyl]thio}phenyl)-2-methyltetrahydro-2H-pyran-4-carboxamide] | 12.2 µM |  |
| NC(=O)C1(c2cccc(Sc3ccc(-c4[nH]ncc4Br)cc3)c2)CCOCC1 [Example 60, 4-(3-{[4-(4-bromo-1H-pyrazol-5-yl)phenyl]thio}phenyl)tetrahydro-2H-pyran-4-carboxamide] | 0.608 µM | 1.4 µM |
| Cn1nccc1C(=O)c1ccc([S+]([O-])c2cccc(C3(C(N)=O)CCOCC3)c2)cc1 (stereo not shown) [Example 66, 4-[3-({4-[(1-methyl-1H-pyrazol-5-yl)carbonyl]phenyl}sulfinyl)phenyl]tetrahydro-2H-pyran-4-carboxamide] | ≥ 25 µM |  |
| NC(=O)C1(c2cccc(Sc3ccc(-c4ccnn4C4CCCC4)cc3)c2)CCOCC1 [Example 3, 4-(3-{[4-(1-cyclopentyl-1H-pyrazol-5-yl)phenyl]thio}phenyl)tetrahydro-2H-pyran-4-carboxamide] | 0.102 µM | 0.179 µM |
| CNC(=O)C1(c2cccc(Sc3ccc(C(=O)c4ccnn4C)c(OC)c3)c2)CCOCC1 [Example 64, 4-[3-({3-methoxy-4-[(1-methyl-1H-pyrazol-5-yl)carbonyl]phenyl}thio)phenyl]-N-methyltetrahydro-2H-pyran-4-carboxamide] | 0.47 µM | 8.27 µM |
| CNC(=O)C1(c2cccc(Sc3ccc(C(=O)c4ccnn4C)c(Cl)c3)c2)CCOCC1 [Example 65, 4-[3-({3-chloro-4-[(1-methyl-1H-pyrazol-5-yl)carbonyl]phenyl}thio)phenyl]-N-methyltetrahydro-2H-pyran-4-carboxamide] | 0.0813 µM | 1.06 µM |
| C[C@H]1C[C@](C#N)(c2ccc(F)c(Sc3ccc(-c4ccnn4C)cc3)c2)CCO1 [Example 74, (2S,4S)-4-(4-fluoro-3-{[4-(1-methyl-1H-pyrazol-5-yl)phenyl]thio}phenyl)-2-methyltetrahydro-2H-pyran-4-carbonitrile] | ≥ 25 µM |  |
| C[C@H]1C[C@@](C(N)=O)(c2cccc(Sc3ccc(-c4ccnn4C)c(F)c3)c2F)CCO1 [Example 31, (2S,4R)-4-(2-fluoro-3-(3-fluoro-4-(1-methyl-1H-pyrazol-5-yl)phenylthio)phenyl)-2-methyl-tetrahydro-2H-pyran-4-carboxamide] | 0.0155 µM | 0.337 µM |
| Cn1nccc1-c1ccc(Sc2cccc(C3(C(N)=O)CCOCC3)c2)c(F)c1 [Example 12, 4-(3-{[2-Fluoro-4-(1-methyl-1H-pyrazol-5-yl)phenyl]thio}phenyl)tetrahydro-2H-pyran-4-carboxamide] | 0.454 µM | 0.267 µM |
| NC(=O)C1(c2cccc(Sc3ccc(-c4ccnn4C4CCCCCC4)cc3)c2)CCOCC1 [Example 4, 4-(3-{[4-(1-cycloheptyl-1H-pyrazol-5-yl)phenyl]thio}phenyl)tetrahydro-2H-pyran-4-carboxamide] | 0.0125 µM | 0.26 µM |
| Cn1nccc1-c1ccc(Sc2cccc(C3(C(N)=O)CCOCC3)c2)c(C#N)c1 [Example 88, 4-(3-{[2-cyano-4-(1-methyl-1H-pyrazol-5-yl)phenyl]thio}phenyl)tetrahydro-2H-pyran-4-carboxamide] | 3.22 µM | 1.17 µM |
| Cn1nccc1C(=O)c1ccc(Sc2cccc(C3(C(N)=O)CCOCC3)c2)c(Cl)c1 [Example 68, 4-[3-({2-chloro-4-[(1-methyl-1H-pyrazol-5-yl)carbonyl]phenyl}thio)phenyl]tetrahydro-2H-pyran-4-carboxamide] | 0.803 µM | 2.48 µM |
| Cn1nccc1C(=O)c1ccc(Sc2cccc(C3(C(N)=O)CCOCC3)c2)cn1 [Example 69, 4-[3-({6-[(1-methyl-1H-pyrazol-5-yl)carbonyl]pyridin-3-yl}thio)phenyl]tetrahydro-2H-pyran-4-carboxamide] | 1.59 µM | 3.35 µM |
| C[C@H]1C[C@](C#N)(c2cccc(Sc3ccc(-c4ccnn4C)cc3)c2)CCO1 [Example 84, (2S,4S)-2-methyl-4-(3-{[4-(1-methyl-1H-pyrazol-5-yl)phenyl]thio}phenyl)tetrahydro-2H-pyran-4-carbonitrile] | 2.23 µM |  |
| C[C@H]1C[C@](C(N)=O)(c2cccc(Sc3ccc(-c4ccnn4C)cc3)c2)CCO1 [Example 81, (2S,4S)-2-methyl-4-(3-{[4-(1-methyl-1H-pyrazol-5-yl)phenyl]thio}phenyl)tetrahydro-2H-pyran-4-carboxamide] | 7.56 µM |  |
| Cn1nccc1-c1ccc([S+]([O-])c2cccc(C3(C(N)=O)CCOCC3)c2)cc1Cl (stereo not shown) [Example 89, 4-(3-{[3-chloro-4-(1-methyl-1H-pyrazol-5-yl)phenyl]sulfinyl}phenyl)tetrahydro-2H-pyran-4-carboxamide] | ≥ 25 µM |  |
| Cn1nccc1C(=O)c1ccc(Sc2cccc(C3(C(N)=O)CCOCC3)c2)c(C#N)c1 [Example 85, 4-[3-({2-cyano-4-[(1-methyl-1H-pyrazol-5-yl)carbonyl]phenyl}thio)phenyl]tetrahydro-2H-pyran-4-carboxamide] | 2.75 µM |  |
| C[C@H]1C[C@](C(N)=O)(c2ccc(F)c(Sc3ccc(-c4ccnn4C)cc3)c2)CCO1 [Example 77, (2S,4S)-4-(4-fluoro-3-{[4-(1-methyl-1H-pyrazol-5-yl)phenyl]thio}phenyl)-2-methyltetrahydro-2H-pyran-4-carboxamide] | 6.38 µM |  |
| C[C@@H]1C[C@@](C#N)(c2cccc(Sc3ccc(-c4ccnn4C)cc3)c2)CCO1 [Example 83, (2R,4R)-2-methyl-4-(3-{[4-(1-methyl-1H-pyrazol-5-yl)phenyl]thio}phenyl)tetrahydro-2H-pyran-4-carbonitrile] | 10.3 µM |  |
| C[C@H]1C[C@](C(N)=O)(c2cccc(Sc3ccc(-c4ccnn4C)cc3)c2F)CCO1 [Example 79, (2S,4S)-4-(2-fluoro-3-{[4-(1-methyl-1H-pyrazol-5-yl)phenyl]thio}phenyl)-2-methyltetrahydro-2H-pyran-4-carboxamide] | 3.31 µM |  |
| Cn1nccc1-c1ccc(Sc2cccc(C3(C(N)=O)CCOC(C)(C)C3)c2)cc1 (stereo not shown) [Example 80, 2,2-dimethyl-4-(3-{[4-(1-methyl-1H-pyrazol-5-yl)phenyl]thio}phenyl)tetrahydro-2H-pyran-4-carboxamide] | 3.54 µM |  |
